Data as given in US20020064500A1, “Radiotracers for in vivo study of acetylcholinesterase and alzheimer's disease” (priority 1999, published 2002).

Tests used:
acetylcholinesterase [1] = target: acetylcholinesterase (Homo sapiens, UniProt P22303); experiment: PET imaging of acetylcholinesterase in a human brain, with and without ARICEPT; settings: for Normalized uptake (nCi/ccBRAIN/nCi/ccPLASMA): healthy human subject, i.v., PET, average of scans after 42 minutes; for Normalized uptake post 5 mg ARICEPT (nCi/ccBRAIN/nCi/ccPLASMA): same subject, 3 hours after oral 5 mg ARICEPT tablet
Experimental: The same imaging study was then performed.
A thermoplastic mask was used for PET positioning. Use of a thermoplastic mask is routine for PET studies to help immobilize the head and to provide spacial facial landmarks. To produce a brain image, PETwas begun, and 25 scans were obtained in 90 minutes. After each scan, heated venous blood samples were withdrawn from the back of the patient's hand, to measure the amount of the radiolabeled compound in the blood, in units of nCi/cc blood. The brain images were used to calculate nCi/ccBRAIN for each scan. The average of the ratio (nCi/ccBRAIN/nCi/ccPLASMA)control (i.e., tissue radioactivity/plasma radioactivity or nanocurries per cubic centimeter of brain tissue divided by nanocurries per cubic centimeter of blood), over the scans collected after 42 minutes, for each area of the brain, are shown in Table 1.
Brain images and brain time radioactivity curves were obtained in the same manner as above and the average nCi/ccBRAIN/nCi/ccPLASMA ratio was calculated for each area the brain.

acetylcholinesterase [2] = target: T1, acetylcholinesterase (Mus musculus, UniProt P21836); experiment: Kinetic experiment: regional brain biodistribution in mice; format: in vivo, male Charles River mice (CD-1); settings: for percentage of the administered dose/gram of brain tissue (%ID/g): 5 minutes post i.v. injection, mean of 3
T1 construct: from tissue; host or cells: brain regions of CD-1 mice after intravenous injection
T1 sequence (P21836 32-614): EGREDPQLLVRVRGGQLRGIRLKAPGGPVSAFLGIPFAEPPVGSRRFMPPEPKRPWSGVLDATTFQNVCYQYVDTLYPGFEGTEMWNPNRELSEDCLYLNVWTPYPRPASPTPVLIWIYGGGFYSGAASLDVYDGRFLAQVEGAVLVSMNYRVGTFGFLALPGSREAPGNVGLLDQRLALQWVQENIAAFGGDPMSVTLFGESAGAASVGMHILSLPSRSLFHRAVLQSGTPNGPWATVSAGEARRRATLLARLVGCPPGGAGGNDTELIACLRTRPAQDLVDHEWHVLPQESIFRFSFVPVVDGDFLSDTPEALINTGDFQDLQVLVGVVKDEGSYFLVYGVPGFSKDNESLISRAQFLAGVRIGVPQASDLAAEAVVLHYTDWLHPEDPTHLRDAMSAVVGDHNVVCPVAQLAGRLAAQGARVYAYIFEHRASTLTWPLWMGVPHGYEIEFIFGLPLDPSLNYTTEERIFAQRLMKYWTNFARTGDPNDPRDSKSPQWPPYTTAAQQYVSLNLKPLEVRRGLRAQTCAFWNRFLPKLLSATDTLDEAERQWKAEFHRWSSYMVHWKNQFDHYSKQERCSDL
Experimental: 21 male Charles River mice (CD-1) were divided into 7 groups of 3 mice each. Each mouse was injected via a tail vein with approximately 350 μCi of compound II (10 μg). Each mouse was sacrificed by cervical dislocation at the following times post injection: group 1 at 5 minutes; group 2 at 15 minutes; group 3 at 30 minutes; group 4 at 45 minutes; group 5 at 60; group 6 at 90 minutes; and group 7 at 120 minutes. At the time of sacrifice of a particular group, the brains of each mouse were quickly removed and dissected on ice. The following regions were collected weighed and assayed for radioactivity: cerebellum, hippocampus, striatum, parietal cortex, thalamus. The following values, averaged over each group of three mice, for the percentage of the administered dose of compound II/gram of brain tissue (%ID/g), were found in the following brain regions at five minutes post injection: striatum (6.19% injected dose/gram tissue); thalamus (4.76%); cortex (4.01%); cerebellum (3.76%); and hippocampus (3.41%).

acetylcholinesterase [3] = target: T1, acetylcholinesterase; experiment: Dose response experiment: blocking of compound II brain binding by compound III in mice; format: in vivo; settings: 5 minutes before compound II i.v.
Experimental: Male Charles River mice (CD-1) were divided into 5 groups of 3 mice each. Non-radiolabeled compound III was administered to each mouse in increasing doses as follows: group1, saline controls; group 2, 0.01 mg/kg; group 3, 0.1 mg/kg; group 4, 0.3 mg/kg; and group 5,1 mg/kg. Five minutes after the injection with compound III or the saline control, each mouse was administered compound II (421 μCi, 8 μg) by intravenous injection as above. Each mouse was sacrificed by cervical dislocation and brain tissue dissected and the radioactivity of each brain region assayed as described above. The values, averaged over each group of three mice, for the percentage of the administered dose of compound II/gram of brain tissue at each dosage of compound III for each brain region were calculated (FIG. 4 below).

Sequence of acetylcholinesterase (Homo sapiens, UniProt P22303) (P22303 32-614): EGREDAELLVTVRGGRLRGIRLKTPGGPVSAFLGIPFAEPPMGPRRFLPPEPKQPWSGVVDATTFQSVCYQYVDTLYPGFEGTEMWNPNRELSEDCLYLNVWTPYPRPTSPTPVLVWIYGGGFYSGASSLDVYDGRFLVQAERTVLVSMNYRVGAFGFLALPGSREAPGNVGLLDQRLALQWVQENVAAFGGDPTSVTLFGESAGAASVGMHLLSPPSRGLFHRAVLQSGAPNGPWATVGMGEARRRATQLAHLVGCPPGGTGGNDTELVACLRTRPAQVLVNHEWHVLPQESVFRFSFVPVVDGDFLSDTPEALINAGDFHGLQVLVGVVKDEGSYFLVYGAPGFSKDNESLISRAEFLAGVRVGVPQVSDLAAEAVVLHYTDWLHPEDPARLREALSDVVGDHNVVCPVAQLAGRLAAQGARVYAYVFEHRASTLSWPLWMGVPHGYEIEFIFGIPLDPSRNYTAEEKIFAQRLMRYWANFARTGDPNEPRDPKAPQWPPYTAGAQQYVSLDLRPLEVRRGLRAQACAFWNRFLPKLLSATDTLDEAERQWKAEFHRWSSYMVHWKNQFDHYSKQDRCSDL

## [11CH3]N1C(=O)Cc2cc3c(CCC4CCN(Cc5ccccc5)CC4)noc3cc21 [compound II, 5,7-dihydro-7-[^11C]-methyl-3-[2-[1-(phenylmethyl)4-piperidinyl]ethyl]-6H-pyrrolo[3,2-f]-1,2-benzisoxazole-6-one]
Acetylcholinesterase [1]; Caudate
  Normalized uptake (nCi/ccBRAIN/nCi/ccPLASMA): 54 nCi/ccBRAIN/nCi/ccPLASMA
  Normalized uptake post 5 mg ARICEPT (nCi/ccBRAIN/nCi/ccPLASMA): 19 nCi/ccBRAIN/nCi/ccPLASMA
Acetylcholinesterase [1]; Cerebellum
  Normalized uptake (nCi/ccBRAIN/nCi/ccPLASMA): 47 nCi/ccBRAIN/nCi/ccPLASMA
  Normalized uptake post 5 mg ARICEPT (nCi/ccBRAIN/nCi/ccPLASMA): 13 nCi/ccBRAIN/nCi/ccPLASMA
Acetylcholinesterase [1]; Frontal cortex
  Normalized uptake (nCi/ccBRAIN/nCi/ccPLASMA): 26 nCi/ccBRAIN/nCi/ccPLASMA
  Normalized uptake post 5 mg ARICEPT (nCi/ccBRAIN/nCi/ccPLASMA): 7 nCi/ccBRAIN/nCi/ccPLASMA
Acetylcholinesterase [1]; Hippocampus
  Normalized uptake (nCi/ccBRAIN/nCi/ccPLASMA): 30 nCi/ccBRAIN/nCi/ccPLASMA
Acetylcholinesterase [1]; Medulla Oblongata
  Normalized uptake (nCi/ccBRAIN/nCi/ccPLASMA): 40 nCi/ccBRAIN/nCi/ccPLASMA
Acetylcholinesterase [1]; Occipital cortex
  Normalized uptake (nCi/ccBRAIN/nCi/ccPLASMA): 23 nCi/ccBRAIN/nCi/ccPLASMA
Acetylcholinesterase [1]; Parietal cortex
  Normalized uptake (nCi/ccBRAIN/nCi/ccPLASMA): 27 nCi/ccBRAIN/nCi/ccPLASMA
  Normalized uptake post 5 mg ARICEPT (nCi/ccBRAIN/nCi/ccPLASMA): 7 nCi/ccBRAIN/nCi/ccPLASMA
Acetylcholinesterase [1]; Pons
  Normalized uptake (nCi/ccBRAIN/nCi/ccPLASMA): 36 nCi/ccBRAIN/nCi/ccPLASMA
Acetylcholinesterase [1]; Putamen
  Normalized uptake (nCi/ccBRAIN/nCi/ccPLASMA): 61 nCi/ccBRAIN/nCi/ccPLASMA
  Normalized uptake post 5 mg ARICEPT (nCi/ccBRAIN/nCi/ccPLASMA): 26 nCi/ccBRAIN/nCi/ccPLASMA
Acetylcholinesterase [1]; Temporal cortex
  Normalized uptake (nCi/ccBRAIN/nCi/ccPLASMA): 26 nCi/ccBRAIN/nCi/ccPLASMA
Acetylcholinesterase [1]; Thalamus
  Normalized uptake (nCi/ccBRAIN/nCi/ccPLASMA): 33 nCi/ccBRAIN/nCi/ccPLASMA
Acetylcholinesterase [2]; 30 minutes post i.v. injection
  highest specific binding defined as striatum-cerebellum: 4.33%
Acetylcholinesterase [2]; cerebellum
  percentage of the administered dose/gram of brain tissue (%ID/g): 3.76%
Acetylcholinesterase [2]; cortex
  percentage of the administered dose/gram of brain tissue (%ID/g): 4.01%
Acetylcholinesterase [2]; hippocampus
  percentage of the administered dose/gram of brain tissue (%ID/g): 3.41%
Acetylcholinesterase [2]; striatum
  percentage of the administered dose/gram of brain tissue (%ID/g): 6.19 % injected dose/gram tissue
Acetylcholinesterase [2]; thalamus
  percentage of the administered dose/gram of brain tissue (%ID/g): 4.76%

## O=C1Cc2cc3c(CCC4CCN(Cc5ccccc5)CC4)noc3cc2N1 [compound III, 5,7-dihydro-3-[2-[1-(phenylmethyl)-4-piperidinyl]ethyl]-6H-pyrrolo[3,2-f]-1,2-benzisoxazole-6-one]
Acetylcholinesterase [3]; compound III 0.1 mg/kg
  reduction of compound II binding in striatum relative to the saline control: 6%
Acetylcholinesterase [3]; compound III 0.3 mg/kg
  reduction of compound II binding in striatum relative to the saline control: 20%
Acetylcholinesterase [3]; compound III 1 mg/kg
  reduction of compound II binding in striatum relative to the saline control: 52%
